From PubChem BioAssay AID1963839 (Molecular Pharmacology Branch, DTP, NCI, 2024)

Test system: 817829-284-R-J1-PDC complex spheroid viability
Experiment: Anticancer human tumor 817829-284-R-J1-PDC patient-derived colon adenocarcinoma cell line growth inhibition [POLQ]
Details: for IC50: curve of first compound; for viability, T/C: stronger effect = lower value
Summary of the method: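 Complex spheroid viability model combining PDC tumour cells with endothelial (HUVEC) and MSC stromal cells. Novobiocin, ART-558 or RP6685 were tested singly and in combination with standard and investigational anticancer drugs. Each was titrated in half-log steps from near clinical Cmax, or from 10 microM where Cmax was unknown.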

[1] = second compound 0.0316 µM, first compound 0.0316 µM
[2] = second compound 0.0316 µM, first compound 0.1 µM
[3] = second compound 0.0316 µM, first compound 0.316 µM
[4] = second compound 0.0316 µM, first compound 1 µM
[5] = second compound 0.0316 µM, first compound 3.16 µM
[6] = second compound 0.0316 µM, first compound 10 µM
[7] = second compound 0.1 µM, first compound 0.0316 µM
[8] = second compound 0.1 µM, first compound 0.1 µM
[9] = second compound 0.1 µM, first compound 0.316 µM
[10] = second compound 0.1 µM, first compound 1 µM
[11] = second compound 0.1 µM, first compound 3.16 µM
[12] = second compound 0.1 µM, first compound 10 µM
[13] = second compound 0.316 µM, first compound 0.0316 µM
[14] = second compound 0.316 µM, first compound 0.1 µM
[15] = second compound 0.316 µM, first compound 0.316 µM
[16] = second compound 0.316 µM, first compound 1 µM
[17] = second compound 0.316 µM, first compound 3.16 µM
[18] = second compound 0.316 µM, first compound 10 µM
[19] = second compound 1 µM, first compound 0.0316 µM
[20] = second compound 1 µM, first compound 0.1 µM
[21] = second compound 1 µM, first compound 0.316 µM
[22] = second compound 1 µM, first compound 1 µM
[23] = second compound 1 µM, first compound 3.16 µM
[24] = second compound 1 µM, first compound 10 µM
[25] = second compound 3.16 µM, first compound 0.0316 µM
[26] = second compound 3.16 µM, first compound 0.1 µM
[27] = second compound 3.16 µM, first compound 0.316 µM
[28] = second compound 3.16 µM, first compound 1 µM
[29] = second compound 3.16 µM, first compound 3.16 µM
[30] = second compound 3.16 µM, first compound 10 µM
[31] = second compound 10 µM, first compound 0.0316 µM
[32] = second compound 10 µM, first compound 0.1 µM
[33] = second compound 10 µM, first compound 0.316 µM
[34] = second compound 10 µM, first compound 1 µM
[35] = second compound 10 µM, first compound 3.16 µM
[36] = second compound 10 µM, first compound 10 µM
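Further: spheroids exposed to compounds for 7 days.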
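Wherever viability, T/C is given: 100% = DMSO vehicle-treated spheroids.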

## CC1COCCN1c1cc(-c2ccnn2C)c2ccnc(-c3ccn[nH]3)c2n1 (centres undefined) + Cc1cccc(N(C)C(=O)C2C(O)CCN2c2nc(C)cc(C(F)(F)F)c2C#N)c1
Second compound 0.0316 µM
  IC50: < 31.6 nM
Second compound 0.1 µM
  IC50: < 31.6 nM
Second compound 0.316 µM
  IC50: < 31.6 nM
Second compound 1 µM
  IC50: < 31.6 nM
Second compound 3.16 µM
  IC50: 32.7 nM
Second compound 10 µM
  IC50: < 31.6 nM
[1]
  viability, T/C: 36.6%
[2]
  viability, T/C: 19.1%
[3]
  viability, T/C: 6.76%
[4]
  viability, T/C: 4.35%
[5]
  viability, T/C: 3.09%
[6]
  viability, T/C: 2.85%
[7]
  viability, T/C: 33.4%
[8]
  viability, T/C: 16.9%
[9]
  viability, T/C: 7.78%
[10]
  viability, T/C: 4.15%
[11]
  viability, T/C: 3.55%
[12]
  viability, T/C: 2.55%
[13]
  viability, T/C: 45.2%
[14]
  viability, T/C: 15.3%
[15]
  viability, T/C: 6.75%
[16]
  viability, T/C: 4.29%
[17]
  viability, T/C: 3.67%
[18]
  viability, T/C: 2.6%
[19]
  viability, T/C: 33.9%
[20]
  viability, T/C: 13.1%
[21]
  viability, T/C: 5.41%
[22]
  viability, T/C: 4.86%
[23]
  viability, T/C: 3.3%
[24]
  viability, T/C: 2.87%
[25]
  viability, T/C: 50.8%
[26]
  viability, T/C: 21.9%
[27]
  viability, T/C: 5.75%
[28]
  viability, T/C: 3.57%
[29]
  viability, T/C: 3.34%
[30]
  viability, T/C: 3.14%
[31]
  viability, T/C: 36.6%
[32]
  viability, T/C: 20%
[33]
  viability, T/C: 7.43%
[34]
  viability, T/C: 4.51%
[35]
  viability, T/C: 3.57%
[36]
  viability, T/C: 2.62%

## CCCS(=O)(=O)Nc1ccc(F)c(C(=O)c2c[nH]c3ncc(-c4ccc(Cl)cc4)cc23)c1F + Cc1cccc(N(C)C(=O)C2C(O)CCN2c2nc(C)cc(C(F)(F)F)c2C#N)c1
Second compound 0.0316 µM
  IC50: 2980 nM
Second compound 0.1 µM
  IC50: 4450 nM
Second compound 0.316 µM
  IC50: 4070 nM
Second compound 1 µM
  IC50: 3710 nM
Second compound 3.16 µM
  IC50: 3810 nM
Second compound 10 µM
  IC50: 2390 nM
[1]
  viability, T/C: 82.6%
[2]
  viability, T/C: 75.3%
[3]
  viability, T/C: 81.4%
[4]
  viability, T/C: 84.3%
[5]
  viability, T/C: 48.3%
[6]
  viability, T/C: 6.4%
[7]
  viability, T/C: 86.5%
[8]
  viability, T/C: 83.7%
[9]
  viability, T/C: 81.9%
[10]
  viability, T/C: 80.8%
[11]
  viability, T/C: 68.1%
[12]
  viability, T/C: 8.39%
[13]
  viability, T/C: 94.9%
[14]
  viability, T/C: 89.6%
[15]
  viability, T/C: 76.4%
[16]
  viability, T/C: 81.8%
[17]
  viability, T/C: 63.8%
[18]
  viability, T/C: 6.86%
[19]
  viability, T/C: 103%
[20]
  viability, T/C: 91.9%
[21]
  viability, T/C: 90.8%
[22]
  viability, T/C: 80.5%
[23]
  viability, T/C: 58.2%
[24]
  viability, T/C: 6.61%
[25]
  viability, T/C: 104%
[26]
  viability, T/C: 97%
[27]
  viability, T/C: 83.3%
[28]
  viability, T/C: 74.3%
[29]
  viability, T/C: 66.5%
[30]
  viability, T/C: 8.21%
[31]
  viability, T/C: 85.7%
[32]
  viability, T/C: 76.5%
[33]
  viability, T/C: 66.5%
[34]
  viability, T/C: 64.2%
[35]
  viability, T/C: 49.5%
[36]
  viability, T/C: 4.19%
